Data on 14 molecules can be found in patent US20220340875A1, “METHODS OF CULTURING AND/OR EXPANDING STEM CELLS AND/OR LINEAGE COMMITTED PROGENITOR CELLS USING AMIDO COMPOUNDS” (IDEAYA BIOSCIENCES, INC., priority 2018, published 2022).

The target in the experiment is T1, hAhR (Homo sapiens, UniProt P35869).
T1 construct: Stably integrated DRE-luciferase cell lines were generated by transducing the both cell lines with Cignal XRE luciferase reporter (Qiagen) lentiviral particles; endogenous in cells
T1 sequence (P35869 11-848): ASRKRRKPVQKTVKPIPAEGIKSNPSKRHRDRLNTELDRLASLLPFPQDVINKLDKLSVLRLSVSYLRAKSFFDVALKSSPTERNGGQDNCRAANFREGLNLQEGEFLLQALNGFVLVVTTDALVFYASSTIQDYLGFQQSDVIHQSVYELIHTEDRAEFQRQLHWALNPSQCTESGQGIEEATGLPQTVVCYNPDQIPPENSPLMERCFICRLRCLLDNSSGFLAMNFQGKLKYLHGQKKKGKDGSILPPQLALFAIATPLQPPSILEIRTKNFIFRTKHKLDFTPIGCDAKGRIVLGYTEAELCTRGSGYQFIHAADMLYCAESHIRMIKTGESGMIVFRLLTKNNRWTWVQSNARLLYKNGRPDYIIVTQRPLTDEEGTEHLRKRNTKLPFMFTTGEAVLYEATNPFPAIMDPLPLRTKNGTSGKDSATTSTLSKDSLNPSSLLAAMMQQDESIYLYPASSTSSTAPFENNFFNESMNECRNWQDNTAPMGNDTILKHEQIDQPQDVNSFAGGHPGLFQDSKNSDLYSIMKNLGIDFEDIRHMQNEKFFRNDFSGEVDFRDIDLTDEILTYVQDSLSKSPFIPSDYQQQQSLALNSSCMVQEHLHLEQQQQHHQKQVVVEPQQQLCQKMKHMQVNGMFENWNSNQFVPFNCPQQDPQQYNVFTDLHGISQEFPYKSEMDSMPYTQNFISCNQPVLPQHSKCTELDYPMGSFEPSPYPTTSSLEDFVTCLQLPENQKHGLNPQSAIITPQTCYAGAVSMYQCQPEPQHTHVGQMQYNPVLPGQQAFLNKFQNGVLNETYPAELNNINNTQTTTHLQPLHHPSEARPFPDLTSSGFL
Put plainly: AhR DRE-luciferase reporter transcriptional assay, antagonist mode (TCDD-induced). In kind it is cell-based. The conditions noted are these: HEPG2 DRE-Luc cells, 3 nM TCDD, 24 hour incubation, relative IC50. The method in brief:
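HepG2 cells carrying a stably integrated DRE-luciferase reporter, in OptiMEM with 0.5% FBS; semi-log compound doses added with 3 nM TCDD, 24 h incubation, firefly luciferase read-out. Percent maximal activity normalised between vehicle ± TCDD; relative IC50 taken as half-reduction between curve plateaus.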
Molecule `C#Cc1ccc2nc(-c3ccc(NC(=O)c4ccnn4C)c(C)c3)ccc2c1` [Example 072, N-(4-(6-ethynylquinolin-2-yl)-2-methylphenyl)-1-methyl-1H-pyrazole-5-carboxamide] showed an IC50 of 200 to 500 nM.

In the case of `Cc1cc(-c2ncc3cc(C(F)(F)F)ccc3n2)ccc1N(C)C(=O)c1ccnn1Cc1nnn[nH]1` [Example 158, 1-((1H-tetrazol-5-yl)methyl)-N-methyl-N-(2-methyl-4-(6-(trifluoromethyl)-quinazolin-2-yl)phenyl)-1H-pyrazole-5-carboxamide], the IC50 was in the range of 1000 to 10000 nM.

`Cc1cc(-c2ccc3cccc(F)c3n2)ccc1NC(=O)OC(C)(C)C` [Example 022, tert-butyl (4-(8-fluoroquinolin-2-yl)-2-methylphenyl)carbamate]: the IC50 lay in the range of 1000 to 10000 nM.

`Cc1cc(-c2ccc3cc(C(F)(F)F)ccc3n2)ccc1N(C)C(=O)c1ccnn1CCO` [Example 209, 1-(2-hydroxyethyl)-N-methyl-N-(2-methyl-4-(6-(trifluoromethyl)quinolin-2-yl)phenyl)-1H-pyrazole-5-carboxamide] yielded an IC50 below 200 nM.

Consider `Cc1cc(C(F)(F)F)nc2cnc(-c3ccc(NC(=O)N4CCOCC4)c(F)c3)nc12` [Example 185, N-(2-fluoro-4-(8-methyl-6-(trifluoromethyl)pyrido[3,2-d]pyrimidin-2-yl)-phenyl)morpholine-4-carboxamide], for which the IC50 was below 200 nM.

`Cc1cc(C(=O)Nc2ccc(-c3ncc4nc(C(F)(F)F)cc(C)c4n3)cc2C)ccn1` [Example 149, 2-methyl-N-(2-methyl-4-(8-methyl-6-(trifluoromethyl)pyrido[3,2-d]pyrimidin-2-yl)phenyl)isonicotinamide] registered an IC50 below 200 nM.

Turning to `Cc1cc(-c2ccc3cc(C#N)ccc3n2)ccc1NC(=O)c1ccnn1C` [Example 073, N-(4-(6-cyanoquinolin-2-yl)-2-methylphenyl)-1-methyl-1H-pyrazole-5-carboxamide], the concentration for half-maximal inhibition (IC50) is below 200 nM.

In the case of `Cn1nccc1C(=O)Nc1ccc(-c2ccc3nc(C(F)(F)F)ccc3n2)cc1F` [Example 103, N-(2-fluoro-4-(6-(trifluoromethyl)-1,5-naphthyridin-2-yl)phenyl)-1-methyl-1H-pyrazole-5-carboxamide], the IC50 was below 200 nM.

With `Cc1cc(-c2ccc3cc(C(F)(F)F)cc(C)c3n2)ccc1NC(=O)c1ccnn1C` [Example 203, 1-methyl-N-(2-methyl-4-(8-methyl-6-(trifluoromethyl)quinolin-2-yl)phenyl)-1H-pyrazole-5-carboxamide], the IC50 is below 200 nM.

Molecule `Cc1cc(-c2ccc3nc(C(F)(F)F)cc(C)c3n2)ccc1N(C)C(=O)c1ccnn1CCO` [Example 223, 1-(2-hydroxyethyl)-N-methyl-N-[2-methyl-4-[8-methyl-6-(trifluoromethyl)-1,5-naphthyridin-2-yl]phenyl]-1H-pyrazole-5-carboxamide] gave an IC50 below 200 nM.

The molecule `Cc1cc(-c2ncc3cc(C(F)(F)F)ccc3n2)ccc1N(C)C(=O)c1cnn[nH]1` [Example 146, N-methyl-N-(2-methyl-4-(6-(trifluoromethyl)quinazolin-2-yl)phenyl)-1H-1,2,3-triazole-5-carboxamide] displayed an IC50 of 1000 to 10000 nM.

On to `Cc1cc(-c2ccc3cc(C(F)(F)F)ccc3n2)ccc1N(C)C(=O)c1ccn[nH]1` [Example 205, N-methyl-N-[2-methyl-4-[6-(trifluoromethyl)quinolin-2-yl]phenyl]-1H-pyrazole-5-carboxamide], for which the IC50 is 500 to 1000 nM.

On to `Cc1cc(-c2ccc3cc(C(F)(F)F)ccc3n2)ccc1N(C)C(=O)c1ccnn1C` [Example 002, N,1-Dimethyl-N-(2-methyl-4-(6-(trifluoromethyl)quinolin-2-yl)phenyl)-1H-pyrazole-5-carboxamide], for which the IC50 is below 200 nM.

For `CCN(C(=O)c1ccnn1C)c1ccc(-c2ccc3cc(C(F)(F)F)ccc3n2)cc1C` [Example 004, N-Ethyl-1-methyl-N-(2-methyl-4-(6-(trifluoromethyl)quinolin-2-yl)phenyl)-1H-pyrazole-5-carboxamide], the IC50 is below 200 nM.
